From patent US11666560B2, “Anti-fibrotic agent” (George Mason University, priority 2020, dated 2023)

Legend:
[1] = tested on: murine lung exposed to bleomycin; assay: Treatment of bleomycin-exposed mice with CT474 (post-disease modeling of lung fibrosis); assay type: in vivo, mice (C57B6 WT); settings: treated from days 7 to 13, vehicle vs CT474, N=13-15 per group
From the text: “Vehicle” as used herein is the substance used as a carrier for the pharmaceutical agent to include aqueous solutions or oils. Oils are derived from petroleum, animal, vegetable or synthetic origin, such as peanut oil. In FIGS. 5-7 signify “veh” signify vehicle. Flow cytometry of peripheral blood buffy coat after being treated with either vehicle or CT474. Pre-mortem Pressure-Volume curve using Sireq Flexivent in murine lung exposed to bleomycin then treated from days 7 to 13 with vehicle or CT474 is shown in FIG. 6. Soluble collagen measured by Sircol assay in murine lung (C57B6 WT) exposed to bleomycin then treated from days 7 to 13 with vehicle (n=15) or […] (n=13) is shown in FIG. 7. Statistical calculations were performed using from repeated measures. Analysis of variation (ANOVA) was used to determine differences between groups.

[2] = tested on: Klebsiella pneumoniae strain 43816; assay: Minimal inhibitory concentration (MIC) method, growth of Klebsiella pneumoniae in tryptic soy broth; assay type: cell-based
Protocol: FIG. 3 show CFU of Klebsiella pneumoniae cultured in tryptic soy broth at 37° C. for 24 h with 0, 10 nM, 100 nM, 1 μM, and 10 μM CT474 dissolved in 1% Dimethyl sulfoxide (DMSO).
Microorganisms: Klebsiella pneumoniae strain 43816 (American Type Culture Collection, Manassas, Va.) was used for the studies.
The minimal inhibitory concentration (MIC) method was used to characterize the in vitro efficacy of the compound as shown in the FIG. 3. Briefly, Klebsiella pneumoniae strain 43816 (American Type Culture Collection, Manassas, Va.) was grown overnight at 37° C. to mid-log phase in tryptic soy broth. CT474 was initially suspended with DMSO, then diluted in the culture broth with final concentrations of CT474 at 0 nM (1% DMSO alone), 10 nM, 100 nM, 1 μM, and 10 μM with 10,000 CFU Klebsiella pneumoniae in 10 mL tryptic soy broth. OD600 was measured 24 h later, then the CFU was determined using a standard curve.
Statistical calculations were performed using from repeated measures. Analysis of variation (ANOVA) was used to determine differences between groups.

`CO[C@H]1C[C@@H](C)C/C(C)=C/[C@@H](C/C=C/c2cc3ccccc3c3ccccc23)C(=O)C[C@H](O)[C@@H](C)[C@@H](/C(C)=C/[C@@H]2CC[C@@H](O)[C@H](OC)C2)OC(=O)[C@@H]2CCCCN2C(=O)C(=O)[C@]2(O)O[C@H]1[C@@H](OC)C[C@H]2C` [CT474] was tested, and the fibrotic lung damage [1] was “significant reduction”, the “effect on the growth of Klebsiella pneumoniae (CFU determined from OD600)” value ([2]; 10 nM, 100 nM, 1 μM, 10 μM CT474 in 1% DMSO, tryptic soy broth, 37° C., 24 h, 10,000 CFU inoculum) was “increasingly suppressive effects” and the “colony forming units (CFU) of Klebsiella pneumoniae” value ([2]; increase in concentration of CT474 from 10 nM upto 1 μM) was “consecutive decrease”.
